Like-named read-outs stand apart in the source and are kept apart here.
How the values were obtained:
[1] = biological target: KIF18A (Homo sapiens (Human), UniProt Q8NI77); test: KIF18A ATPase activity under tubulin stimulation (ADP-Glo assay); format: biochemical; settings: KIF18A 30 nM, ATP 150 μM, pig microtubules
[2] = system: A2780 cells; test: A2780 cell anti-proliferation assay; format: cell-based; settings: 6 days, Cell Titer-Glo
Description: A2780 (ECACC) cells were cultured in RPMI-1640 complete medium (Gibco, A1049101) containing 10% fetal bovine serum (Gibco, 10099-141C), 100 U penicillin and 100 μg/mL streptomycin (Gibco, 15140-122). The Promega kit Cell Titer-Glo (Promega: G7572) was used in this method for test.
A2780 cells were cultured in T75 cell flasks (Corning, 430641) and the cells were placed in a 37° C., 5% CO2 incubator. Cells were passaged when reaching a cell density of 70%-80%, once every five days. To perform the experiment, the test compounds were dissolved in DMSO to prepare a 10 mM stock solution, and the test compounds were added to the 384-well cell test plate (Corning, 3765) at the predetermined concentration (19.5 nM-[…]) using ECHO. A2780 cells were digested and 4000 cells (60 μL medium) were seeded per well in the test plate. The 384-well plate was then centrifuged at 500 rpm for 1 minute, and then placed in a 37° C., 5% CO2 incubator for 6 days of cultivation. Six days later, the cell culture plate was equilibrated for 10 minutes at room temperature, 25 μL of Cell Titer-Glo was added to each well, and the mixture was shaken and mixed well and let stand for 5 minutes. The luminescence values for samples in various wells were read using a microplate reader in Luminescence mode.
The percentage of inhibition of A2780 cell proliferation by the test compound at each concentration was calculated by comparing with the values of the control group (0.2% DMSO). The IC50 values of the compounds were obtained by concentration-inhibition rate nonlinear regression analysis of the test compounds using GraphPad Prism 9.

[3] = system: OVCAR-3 cells; test: OVCAR-3 cell proliferation (Cell Titer-Glo, 10 days); format: cell-based, human
Summary of the method: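 IC50 was fitted by nonlinear regression of percent inhibition versus the 0.1% DMSO control. Luminescence was read with Cell Titer-Glo after 10 days of co-culture of logarithmic-phase cells (400/well) with compound at 0.12 nM–10 μM final, in medium with 20% fetal bovine serum and 0.01 mg/mL insulin.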

Sequence of KIF18A (Q8NI77 whole entry): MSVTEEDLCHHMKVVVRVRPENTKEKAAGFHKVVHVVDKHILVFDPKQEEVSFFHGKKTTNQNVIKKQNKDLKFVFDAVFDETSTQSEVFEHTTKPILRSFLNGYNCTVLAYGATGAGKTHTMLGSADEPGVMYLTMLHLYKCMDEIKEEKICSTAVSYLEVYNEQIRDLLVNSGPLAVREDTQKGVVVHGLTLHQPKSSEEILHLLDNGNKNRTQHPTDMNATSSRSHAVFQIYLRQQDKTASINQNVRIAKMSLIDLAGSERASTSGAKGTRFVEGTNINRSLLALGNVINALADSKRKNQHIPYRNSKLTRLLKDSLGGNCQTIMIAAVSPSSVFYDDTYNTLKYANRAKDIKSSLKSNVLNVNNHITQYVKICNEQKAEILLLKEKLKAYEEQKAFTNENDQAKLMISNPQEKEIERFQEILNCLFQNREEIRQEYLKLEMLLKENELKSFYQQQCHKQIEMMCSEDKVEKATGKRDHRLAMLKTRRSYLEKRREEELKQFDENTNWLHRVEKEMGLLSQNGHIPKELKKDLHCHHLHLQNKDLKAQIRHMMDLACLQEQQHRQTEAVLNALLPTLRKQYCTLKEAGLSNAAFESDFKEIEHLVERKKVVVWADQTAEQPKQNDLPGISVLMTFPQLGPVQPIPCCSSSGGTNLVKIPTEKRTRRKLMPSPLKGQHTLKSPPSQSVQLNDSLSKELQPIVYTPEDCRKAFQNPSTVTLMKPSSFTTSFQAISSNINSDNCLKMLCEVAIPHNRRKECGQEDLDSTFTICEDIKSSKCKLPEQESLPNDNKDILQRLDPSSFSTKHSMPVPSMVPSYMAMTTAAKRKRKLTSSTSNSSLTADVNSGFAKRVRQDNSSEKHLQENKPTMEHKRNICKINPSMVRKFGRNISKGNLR
Sequence of KIF18A (P02550 whole entry partner): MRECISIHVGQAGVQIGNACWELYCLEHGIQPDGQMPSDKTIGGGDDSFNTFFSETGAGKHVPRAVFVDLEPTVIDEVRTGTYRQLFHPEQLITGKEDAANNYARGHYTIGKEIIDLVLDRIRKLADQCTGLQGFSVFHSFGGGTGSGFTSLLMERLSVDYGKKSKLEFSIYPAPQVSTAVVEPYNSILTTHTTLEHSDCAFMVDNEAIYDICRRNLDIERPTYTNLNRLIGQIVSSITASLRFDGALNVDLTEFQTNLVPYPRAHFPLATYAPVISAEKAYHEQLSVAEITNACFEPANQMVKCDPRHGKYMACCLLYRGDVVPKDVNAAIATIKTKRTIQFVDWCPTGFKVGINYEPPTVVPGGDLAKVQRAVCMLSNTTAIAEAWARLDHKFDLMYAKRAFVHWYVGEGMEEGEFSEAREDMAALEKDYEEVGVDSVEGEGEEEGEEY
Sequence of KIF18A (P02554 whole entry partner): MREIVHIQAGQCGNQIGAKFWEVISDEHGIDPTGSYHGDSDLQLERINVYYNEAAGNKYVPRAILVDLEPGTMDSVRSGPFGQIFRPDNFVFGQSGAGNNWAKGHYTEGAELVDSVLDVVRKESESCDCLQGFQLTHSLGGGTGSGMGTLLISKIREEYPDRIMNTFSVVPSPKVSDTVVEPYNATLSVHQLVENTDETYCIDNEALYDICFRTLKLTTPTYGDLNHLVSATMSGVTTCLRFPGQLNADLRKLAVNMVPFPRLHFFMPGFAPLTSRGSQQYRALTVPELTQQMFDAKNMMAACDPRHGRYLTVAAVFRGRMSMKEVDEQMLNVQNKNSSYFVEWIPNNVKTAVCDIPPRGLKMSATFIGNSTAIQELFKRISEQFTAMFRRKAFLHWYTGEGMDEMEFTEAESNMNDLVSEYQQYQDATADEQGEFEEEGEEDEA

Row | Compound | IC50 [1] | IC50 ([2]; Homo sapiens, A2780, 144 h) | IC50 ([3]; Homo sapiens, OVCAR-3, 240 h) | IC50 [2] | IC50 [3]
1 | O=C(Nc1cccc2c1cc1n2CCC(F)(F)C1)c1ccc(NS(=O)(=O)CCO)cc1N1CCC(=C(F)F)CC1 [Example 374, N-(8,8-difluoro-6,7,8,9-tetrahydropyridino[1,2-a]indol-1-yl)-2-(4-(difluoromethylene)piperidin-1-yl)-4-((2-hydroxyethyl)sulfonamido)benzamide] | ≤ 50 nM | 8.5 µM | ≤ 50 nM | – | –
2 | N#Cc1ccc(NC(=O)c2ccc(NS(=O)(=O)CCO)cc2N2CCC(=C(F)F)CC2)c2cc3n(c12)CCC(F)(F)C3 [Example 378] | 50 to 500 nM | – | – | 7.7 µM | ≤ 50 nM
3 | N#Cc1ccc(NC(=O)c2ccc(NS(=O)(=O)CCO)cc2N2CCC3(CC2)CC3)c2cc3n(c12)CCC(F)(F)C3 [Example 379] | ≤ 50 nM | – | – | 5.3 µM | ≤ 50 nM
4 | COc1ccc(NC(=O)c2ccc(NS(=O)(=O)CCO)cc2N2CCC3(CC2)CC3)c2cc3n(c12)CC(C)(C)OC3 [Example 455, 4-((2-hydroxyethyl)sulfonamido)-N-(6-methoxy-3,3-dimethyl-3,4-dihydro-1H-[1,4]oxazinyl[4,3-a]indol-9-yl)-2-(6-azaspiro[2.5]oct-6-yl)benzamide] | 50 to 500 nM | > 10 µM | ≤ 50 nM | – | –
5 | COc1ccc(NC(=O)c2ccc(NS(=O)(=O)CCO)cc2N2CCC(=C(F)F)CC2)c2cc3n(c12)CC(C)(C)OC3 [Example 465, 2-(4-(difluoromethylene)piperidin-1-yl)-4-((2-hydroxyethyl)sulfonamido)-N-(6-methoxy-3,3-dimethyl-3,4-dihydro-1H-[1,4]oxazinyl[4,3-a]indol-9-yl)benzamide] | 50 to 500 nM | – | – | > 10 µM | ≤ 50 nM
